pIC50: −log10 of the molar value. Each block holds one compound with its values, some of them ahead of it.
Experiments:
Human adenovirus 7 = experiment: Antiviral activity against Human adenovirus 7 infected in human HEp-2 cells assessed as reduction in viral growth incubated for 0.5 hrs followed by cell infection measured after 1 hr by crystal violet staining based assay relative to control; assay type: functional; parameters: scale not given: the % may be the effect or the level left; settings: time 1.5 hrs
Hepatovirus A = experiment: Antiviral activity against Hepatitis A virus HM175 infected in monkey FRhK-4 cells assessed as reduction in viral growth incubated for 0.5 hrs followed by cell infection measured after 1 hr by crystal violet staining based assay relative to control; assay type: functional; parameters: scale not given: the % may be the effect or the level left; settings: time 1.5 hrs
Coxsackievirus B4 = experiment: Antiviral activity against Coxsackievirus B4 infected in African green monkey BGM cells assessed as reduction in viral growth incubated for 0.5 hrs followed by cell infection measured after 1 hr by crystal violet staining based assay relative to control; assay type: functional; parameters: scale not given: the % may be the effect or the level left; settings: time 1.5 hrs
Human alphaherpesvirus 1 = experiment: Antiviral activity against […] type 1 infected in African green monkey Vero cells assessed as reduction in viral growth incubated for 0.5 hrs followed by cell infection measured after 1 hr by crystal violet staining based assay relative to control; assay type: functional; parameters: scale not given: the % may be the effect or the level left; settings: time 1.5 hrs
[1] = Inhibition of quorum sensing system in Pseudomonas aeruginosa assessed as reduction in LasI gene expression measured per well
HepG2 = experiment: Cytotoxicity against human HepG2 cells assessed as cell growth inhibition incubated for 72 hrs by SRB assay; assay type: functional, cell-based; settings: HepG2, 72 h
[2] = molecular target: Coagulation factor VII/tissue factor (Homo sapiens, UniProt P08709); experiment: Inhibition of TF/VIIA complex (unknown origin); assay type: protein-complex assay
[3] = Inhibition of HIV reverse transcriptase; parameters: species or system Human immunodeficiency virus
[4] = molecular target: Interleukin-6 (Homo sapiens) (UniProt P05231); experiment: Inhibition of IL-6 (unknown origin) relative to control; settings: concentration not given here
[5] = molecular target: Human immunodeficiency virus type 1 reverse transcriptase (Human immunodeficiency virus 1, UniProt Q72547); experiment: Inhibition of HIV-1 reverse transcriptase using rC.dG as primer/template
Staphylococcus aureus = experiment: Antibacterial activity against Staphylococcus aureus assessed as zone of inhibition incubated for 24 hrs by well diffusion assay; assay type: functional
Escherichia coli = experiment: Antibacterial activity against Escherichia coli assessed as zone of inhibition incubated for 24 hrs by well diffusion assay; assay type: functional
Bacillus subtilis = experiment: Antibacterial activity against Bacillus subtilis assessed as zone of inhibition incubated for 24 hrs by well diffusion assay; assay type: functional
Aspergillus niger = experiment: Antifungal activity against Aspergillus niger assessed as zone of inhibition incubated for 24 hrs by well diffusion assay; assay type: functional

Chain of Coagulation factor VII/tissue factor (P08709 61-212 limits assumed): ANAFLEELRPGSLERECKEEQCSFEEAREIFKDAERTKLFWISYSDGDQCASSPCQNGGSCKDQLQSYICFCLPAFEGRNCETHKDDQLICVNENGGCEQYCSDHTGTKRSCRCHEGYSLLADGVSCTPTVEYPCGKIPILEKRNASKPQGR
Chain of Coagulation factor VII/tissue factor (P08709 213-466 limits assumed): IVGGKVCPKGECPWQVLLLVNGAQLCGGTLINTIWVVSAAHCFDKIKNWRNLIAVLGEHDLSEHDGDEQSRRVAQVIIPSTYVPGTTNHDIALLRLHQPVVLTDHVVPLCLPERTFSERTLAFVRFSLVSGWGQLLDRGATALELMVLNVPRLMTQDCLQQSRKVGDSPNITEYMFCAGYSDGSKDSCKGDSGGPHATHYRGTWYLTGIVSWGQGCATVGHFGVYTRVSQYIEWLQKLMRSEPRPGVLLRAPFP
Chain of Coagulation factor VII/tissue factor (P13726 33-295 partner limits assumed): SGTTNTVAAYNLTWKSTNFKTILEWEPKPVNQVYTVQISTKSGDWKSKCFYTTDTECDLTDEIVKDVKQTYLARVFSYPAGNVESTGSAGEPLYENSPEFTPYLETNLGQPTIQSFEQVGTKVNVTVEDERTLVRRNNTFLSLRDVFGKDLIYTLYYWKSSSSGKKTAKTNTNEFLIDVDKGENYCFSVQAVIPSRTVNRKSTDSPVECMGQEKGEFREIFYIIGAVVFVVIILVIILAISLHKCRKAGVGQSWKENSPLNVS
Chain of Interleukin-6 (Homo sapiens) (P05231 whole entry): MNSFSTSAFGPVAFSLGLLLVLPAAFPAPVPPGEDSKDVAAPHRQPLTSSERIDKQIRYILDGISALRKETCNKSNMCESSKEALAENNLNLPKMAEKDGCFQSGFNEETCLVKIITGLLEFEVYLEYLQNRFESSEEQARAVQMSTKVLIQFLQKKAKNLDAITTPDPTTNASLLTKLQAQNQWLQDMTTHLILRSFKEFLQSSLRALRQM

SMILES: N#Cc1cc(-c2nc3ccccc3s2)c(=O)n(NS(=O)(=O)c2ccccc2)c1N
Activity (Human adenovirus 7): <=70% | Activity (Hepatovirus A): <=70% | Activity (Coxsackievirus B4): <=70% | Activity (Human alphaherpesvirus 1): <=70%

SMILES: CCCc1cc(O)c(CC)c(=O)[nH]1
MIC [1]: 6.35 µg

SMILES: COC(=O)c1ccccc1-n1c(N)c(C(N)=O)c(-c2ccc(C)cc2)cc1=O
pIC50 (HepG2): 5.87

SMILES: CC[C@@H](C)c1cc(O)c(C)c(=O)[nH]1
MIC [1]: 6.35 µg

SMILES: CCc1cc(NCc2cc3ccccc3o2)c(O)nc1C
pIC50 [5]: 9.48

SMILES: Cc1[nH]c(=O)c(C#N)c(-c2ccccc2Br)c1C(=O)Nc1ccccc1
diameter of the inhibition zone (DIZ) (Staphylococcus aureus): 4.25 mm | diameter of the inhibition zone (DIZ) (Escherichia coli): 3.75 mm | diameter of the inhibition zone (DIZ) (Bacillus subtilis): 3.5 mm | diameter of the inhibition zone (DIZ) (Aspergillus niger): 3 mm

SMILES: Cc1ccc(S(=O)(=O)Nn2c3c(cc(-c4nc5ccccc5s4)c2=O)CCCC3)cc1
Activity (Human adenovirus 7): <=70% | Activity (Hepatovirus A): <=70% | Activity (Coxsackievirus B4): <=70% | Activity (Human alphaherpesvirus 1): <=70%

SMILES: Cc1c(O)cc(CC(C)C)[nH]c1=O
MIC [1]: 6.35 µg

SMILES: CCc1c(O)cc(C(C)C)[nH]c1=O
MIC [1]: 6.35 µg

SMILES: COC(=O)c1ccccc1-n1c(N)c(C#N)c(-c2ccc(N(C)C)cc2)cc1=O
pIC50 (HepG2): 5.62

SMILES: O=c1c(-c2nc3ccccc3s2)cc2c(n1NS(=O)(=O)c1ccc(Cl)cc1)CCCC2
Activity (Human adenovirus 7): <=70% | Activity (Hepatovirus A): <=70% | Activity (Coxsackievirus B4): <=70% | Activity (Human alphaherpesvirus 1): <=70%

The next lines start with the values.

pIC50 [2]: 7.28
SMILES: CC(C)Nc1ccc(-c2cc(N)cc([N+](=O)[O-])c2)n(CC(=O)NCc2ccc(C(=N)N)cc2)c1=O

pIC50 [3]: 10.24
SMILES: CCc1cc(NCN2C(=O)c3ccccc3C2=O)c(O)nc1C

inhibition [4]: 65.1%
SMILES: COc1ccc(-c2c(C(=O)Nc3ccc(O)cc3)c(N)[nH]c(=O)c2C#N)cc1

pIC50 [2]: 6.93
SMILES: CC(C)Nc1ccc(-c2cc(C(=O)O)cc([N+](=O)[O-])c2)n(CC(=O)NCc2ccc(C(=N)N)cc2)c1=O

pIC50 [3]: 8.21
SMILES: CCc1cc(CCN2C(=O)c3ccccc3C2=O)c(O)nc1C
